Assay results: article PMC3764403 (Chemistry & Biology, 2008)
Read-outs that look alike come from different tables or passages of the source. Numbered stars: 1 amine (or outer) side, 2 acyl side, 3 side chain; on linkers, the order of the positions; unused ones are H or OH. Square brackets hold non-standard residues; d marks the D form. Side chains are listed from the residue outwards. Peptide text beside a SMILES is read from it. NMeF = CN[C@@H](Cc1ccccc1)C(=O)O; CO = O=C([*:1])[*:2]

What was measured:
[1] = target: T1, chitinase B1 from Aspergillus fumigatus (AfChiB1) (Aspergillus fumigatus, UniProt Q873X9); experiment: biochemical; conditions: for AfChiB1 BEI (Binding Efficiency Index): BEI = −log(Ki)/M, M in kilodaltons, Ki derived from IC50 by Cheng and Prusoff equation
T1 construct: made in house; host or cells: Escherichia coli
Description: Chitinase activities for AfChiB1 ([Rao et al., 2005b]), hCHT ([Boot et al., 1998]), and total chitinase activity in lung homogenate samples from a mouse model of chronic asthma were determined as previously described ([Schüttelkopf et al., 2006]). […] AfChiB1 (2 nM) was incubated with 20 μM 4-methylumbelliferyl-β-D-N-N'-diacetylchitobiose (4MU-GlcNAc2; Sigma) and 0.25 mg/ml bovine serum albumin in 100 mM citric acid, 200 mM Na2HPO4 (pH 5.5). hCHT (0.3 nM) was incubated with 22 μM 4-methylumbelliferyl-β-D-N-N'-triacetylchitobiose (4MU-GlcNAc3; Sigma) and 0.25 mg/ml bovine serum albumin in 100 mM citric acid, 200 mM Na2HPO4 (pH 5.2). Lung homogenate (39 μg/ml) (obtained as described previously [[Schüttelkopf et al., 2006]]) was incubated with 20 μM 4MU-GlcNAc2 in 100 mM citric acid, 200 mM Na2HPO4 (pH 5.5). All reactions were run for 10 min at 37°C, and liberated 4-methylumbelliferone (4MU) was quantified after addition of 25 μl 3 M glycine-NaOH (pH 10.6) using an Flx 800 microtiterplate fluorescence reader (Bio-Tek instruments) with 40 nm slits and excitation and emission wavelengths of 360 nm and 460 nm, respectively.

[2] = target: T1, chitinase B1 from Aspergillus fumigatus (AfChiB1); conditions: Table 1, argifin value reported previously, ref Rao et al., 2005b, Dixon et al.; cited from earlier work
[3] = target: chitinase B from Serratia marcescens; design: method as in Houston et al., 2002b; conditions: ref Houston et al., 2002b; read-out: IC50 against chitinase B from Serratia marcescens; cited from earlier work

| Compound | AfChiB1 BEI (Binding Efficiency Index) [1] | IC50 ([1]; read-out: IC50 against AfChiB1) | IC50 [2] | IC50 [3] |
| --- | --- | --- | --- | --- |
| CNC(=O)NC(=N)NCCCC(NC(C)=O)C(=O)NC (stereo not shown) [Monopeptide] | 15.3 | 81 µM | – | – |
| argifin | 11.7 | – | 0.027 µM | 33 µM |
| CNC(=O)NC(=N)NCCC[C@H](NC(C)=O)C(=O)N(C)[C@@H](Cc1ccccc1)C(=O)N[C@@H](CC(=O)O)C(=O)O [Tripeptide] (Ac-Arg([CO-NHMe])-[NMeF]-Asp-OH) | 10.2 | – | – | – |
| CNC(=N)NC(=O)NC [Dimethylguanylurea, dimethylguanylurea] | 27.7 | – | – | – |
